The values that follow come from US6214563A, “Photon reducing agents for reducing undesired light emission in assays” (Aurora Biosciences Corporation, priority 1998, dated 2001).

A short description of series [1]: Effect of 50% methanol on coumarin fluorescence and phenol red absorbance (Example 2). In kind it is physicochemical. The procedure: To further investigate the ability of a photon reducing agent to reduce fluorescence of a solution, fluorescence of a dye in the presence of a photon reducing agent was monitored in the presence and absence of methanol.
The fluorescence from a fluorophore in the presence of a photon reducing agent (phenol red) was determined in both aqueous buffer and aqueous buffer containing 50% (vol/vol) methanol. A 10 μM solution of 6-chloro-7-hydroxy coumarin-3-carboxylate was prepared in 39 mM phosphate buffer pH 7.5 and in a 1:1 mixture of same phosphate buffer and methanol. 1% (vol/vol) of a 100 mM aqueous Phenol Red stock solution was added to the solutions.

In another series the test system is arthritis. Conditions: in vivo; cited from earlier work.
Series [2] is described as follows: Front face solution fluorescence of coumarin with and without phenol red (Example 1). Conditions: 1 mM phenol red; 0.5 μM coumarin; 50% methanol/phosphate buffer pH 7.5. How it is done:
To investigate the ability of a photon reducing agent to reduce fluorescence of a solution, emission of a fluorophore from a sample was monitored in the presence and absence of a photon reducing agent.
Fluorescence from a solution of a blue fluorescent dye, 6-chloro-7-hydroxy coumarin 3-carboxylate, was determined in the presence and absence of a 1 mM phenol red as the photon reducing agent. A solution of 0.5 μM 6-chloro-7-hydroxy coumarin-3-carboxylate in solvent containing 50% (vol/vol) aqueous 39 mM phosphate buffer pH 7.5 and 50% (vol/vol) methanol was prepared. After taking a front face fluorescence spectrum of this solution on a Spex Fluorolog 2, 1% (vol/vol) of a 100 mM aqueous Phenol Red stock solution was added and another spectrum taken. Front face fluorescence refers to exciting the sample at a right angle to the sample surface and collecting emitted light (for example, from the excited region or emission region) at 12.5 degrees from such angle of excitation.

A short description of series [3]: Absorption maxima of dyes (Table 1). Conditions: value printed in parentheses. The class given is physicochemical.
The nature of series [4]: Coumarin fluorescence as a function of path length (Example 6). Conditions: 10 μM coumarin + 1 mM phenol red; FIG. 10A. How it is done: To further investigate the ability of photon reducing agents to reduce fluorescence emitted from a solution, fluorescence emitted from a solution containing a fluorophore in the presence of a photon reducing agent was monitored as a function sample thickness.
A photon reducing agent, phenol red, was tested with a fluorophore, coumarin, as a function of sample thickness (path length). The experiment was conducted using a microscope equipped with epifluorescence. The liquid samples were drawn into low fluorescence capillary tubes of fixed path length (Vitro Dynamics, Rockaway N.J.) as indicated in the graphs. The following samples were evaluated:
The samples were excited using a 405/20 filter via a 425 dichroic reflector through a 20× objective (Zeiss 20× Fluar). Emitted light was filtered through a 460/50 filter and detected by an intensified CCD camera (Stanford Photonics, Menlo Park, Calif.). The detector output was converted to a 512×512 pixel eight-bit digital image. The data reflect the average intensity within a 20×20 pixel area within the capillary. The background intensity of the field was subtracted from all values.

Series [5] can be described thus: Residual coumarin fluorescence with non-dye quenchers and particulates (Example 3). Conditions: ex. 395 nm, em. 460 nm; pH 7.5.
The test system of another series is T-cells. Conditions: cited from earlier work.

Consider `O=C(O)c1cc2cc(Cl)c(O)cc2oc1=O` [6-chloro-7-hydroxy coumarin-3-carboxylate], for which, in series [1] (absence of a photon reducing agent), the “increase of fluorescence in 50% methanol buffer” value was “about 30%”.
Regarding `C[C@]12CCC(=O)C=C1CC[C@@H]1[C@@H]2[C@@H](O)C[C@@]2(C)[C@H]1CC[C@]2(O)C(=O)CO` [Hydrocortisone], the “efficacy in rabbit knee arthritis model” value in the series on arthritis is on record as “efficacious in this model”.
On to `O=S1(=O)OC(c2ccc(O)cc2)(c2ccc(O)cc2)c2ccccc21` [phenol red], for which, in series [2], the “reduction of front face fluorescence” value stood at 70 fold. Also, the “decrease of absorbance at the emission wavelength of the coumarin in 50% methanol buffer” value in series [1] (50% methanol buffer) is given as “about 20%”. Further, the “absorption maximum, value in parentheses” value in series [3] amounted to 423 nm. Further, the “attenuation of coumarin fluorescence” value in series [4] is “significantly attenuated”.
On to `NCCN(CCN)CCN` [tris (2-aminoethyl) amine], for which the “concentration required (collisional quenchers)” value in series [5] is “higher than 100 mM”.
For the compound cyclosporin A, the “prevention of T-cell proliferation in vitro” value in the series on T-cells is reported as “prevent proliferation of T-cells in vitro”.
